Legend:
Format in all cases: in vivo
barley - Hordeum vulgare = assay: Greenhouse drought stress test on barley after spray treatment; conditions: HORVS (barley), drought stress 26° C./18° C. (day/night) one week, 7 days recovery; 100 g of a.s./ha, spray 600 l/ha; damage vs untreated stressed plants
Description: (§1) Oilseed rape, maize and barley are cultivated on sandy clay under greenhouse conditions. After 2-3 weeks, after BBCH10 to BBCH13 has been reached, the plants are each treated with bixafen at application rates of from 250 g/ha and 100 g/h. The spray volume is adjusted to 600 l/ha. The plants are then exposed to drought stress by heating the test chamber to 26° C./18° C. (day/night) or cold temperature stress brought about by cooling the test chamber to 8° C./1° C. (day/night). After one week, the test chamber is readjusted to normal temperatures and the test plants are then allowed to recover for 7 days. Evaluation of the compounds tested is carried out by comparison of the treated plants with the untreated plants, each of which was exposed to the stress factors, using the formula below: [formula] EFF: efficiency (%) SWug: damage to untreated control plants SWbg: damage to treated plants

maize - Zea mays = assay: Greenhouse cold temperature stress test on maize after spray treatment; conditions: cold temperature stress 8° C./1° C. (day/night) one week, 7 days recovery, spray 600 l/ha, damage vs untreated stressed plants
Description: as §1

[1] = test system: oilseed rape - Brassica napus; assay: Greenhouse drought stress test on oilseed rape after spray treatment; conditions: BRSNS (oilseed rape), drought stress 26° C./18° C. (day/night) one week, 7 days recovery; 250 g of a.s./ha, spray 600 l/ha; damage vs untreated stressed plants
Description: as §1

In the case of `Cn1cc(C(=O)Nc2ccc(F)cc2-c2ccc(Cl)c(Cl)c2)c(C(F)F)n1` [bixafen, N-(3′,4′-dichloro-5-fluoro-1,1′-biphenyl-2-yl)-3-(difluoromethyl)-1-methyl-1H-pyrazole-4-carboxamide], the Efficiency (barley - Hordeum vulgare) is reported as 22%, the Efficiency (maize - Zea mays; 100 g of a.s./ha) is reported as 21% and the Efficiency (maize - Zea mays; 250 g of a.s./ha) is reported as 47%. It also gave an Efficiency [1] of 15%.
